Results taken from patent EP0908457B1, “3-(1,2-benzisothiazol- and isoxazol-5-Y1)-2,4(1H,3H)-pyrimidinedione or thione and 3-(1,2-benzisothiazol- and isoxazol-5-y1)-4(3H)-pyrimidinone or thione herbicidal agents” (BASF AKTIENGESELLSCHAFT, priority 1997, dated 1999).

Key:
Type in all cases: in vivo
[1] = test system: Echinochloa oryzoides (Ard.) Fritsch.; test: Preemergence weed control under flooded paddy conditions, ECHORC (Watergrass (Calif.)); settings: preemergence, flooded paddy
Cyperus iria = test: Preemergence weed control under flooded paddy conditions, CYPIR (Rice Flatsedge); settings: preemergence, flooded paddy
[2] = test system: Cyperus serotinus, Rottb.; test: Preemergence weed control under flooded paddy conditions, CYPSE (Flatsedge); settings: preemergence
[3] = test system: Monochoria vaginalis, Presl.; test: Preemergence weed control under flooded paddy conditions, MOOVA (Monochoria); settings: preemergence, flooded paddy
Sagittaria pygmaea, L. = test: Preemergence weed control under flooded paddy conditions, SAGPY (Arrowhead (Pygmaea)); settings: preemergence, flooded paddy
[4] = Rate 0.0320 kg/ha, rated three to four weeks after treatment
[5] = Rate 0.0620 kg/ha, rated three to four weeks after treatment
[6] = Rate 0.1250 kg/ha, rated three to four weeks after treatment
[7] = Rate 0.2500 kg/ha, rated three to four weeks after treatment
[8] = Rate 0.5000 kg/ha, rated three to four weeks after treatment
[9] = Rate 0.0320 kg/ha, rated 3-4 weeks after treatment
[10] = Rate 0.0620 kg/ha, rated 3-4 weeks after treatment
[11] = Rate 0.1250 kg/ha, rated 3-4 weeks after treatment
[12] = Rate 0.2500 kg/ha, rated 3-4 weeks after treatment
[13] = 0.0320 kg/ha, rated three to four weeks after treatment
[14] = 0.0620 kg/ha, rated three to four weeks after treatment
[15] = 0.1250 kg/ha, rated three to four weeks after treatment
[16] = 0.2500 kg/ha, rated three to four weeks after treatment

Structure (SMILES): Cn1c(C(F)(F)F)cc(=O)n(-c2ccc3snc(COC(=O)NCc4ccccc4)c3c2)c1=O [Example 390, 2,4(1H,3H)-Pyrimidinedione, 3-[3-(hydroxymethyl)-1,2-benzisothiazol-5-yl]-1-methyl-6-(trifluoromethyl)-, benzylcarbamate (ester)]
- herbicidal effect rating, ECHORC [1, 4]: 5.5
- herbicidal effect rating, ECHORC [1, 5]: 7.0
- herbicidal effect rating, ECHORC [1, 6]: 8.0
- herbicidal effect rating, ECHORC [1, 7]: 9.0
- herbicidal effect rating, ECHORC [1, 8]: 9.0
- herbicidal effect rating, CYPIR (Cyperus iria; [4]): 1.0
- herbicidal effect rating, CYPIR (Cyperus iria; [5]): 4.0
- herbicidal effect rating, CYPIR (Cyperus iria; [6]): 7.0
- herbicidal effect rating, CYPIR (Cyperus iria; [7]): 9.0
- herbicidal effect rating, CYPIR (Cyperus iria; [8]): 9.0
- herbicidal effect rating, CYPSE [2, 4]: 2.5
- herbicidal effect rating, CYPSE [2, 6]: 4.0
- herbicidal effect rating, CYPSE [2, 7]: 9.0
- herbicidal effect rating, CYPSE [2, 8]: 6.0
- herbicidal effect rating, MOOVA [3, 4]: 9.0
- herbicidal effect rating, MOOVA [3, 5]: 9.0
- herbicidal effect rating, MOOVA [3, 6]: 9.0
- herbicidal effect rating, MOOVA [3, 7]: 9.0
- herbicidal effect rating, MOOVA [3, 8]: 9.0
- herbicidal effect rating, SAGPY (Sagittaria pygmaea, L.; [4]): 2.5
- herbicidal effect rating, SAGPY (Sagittaria pygmaea, L.; [5]): 5.5
- herbicidal effect rating, SAGPY (Sagittaria pygmaea, L.; [6]): 8.0
- herbicidal effect rating, SAGPY (Sagittaria pygmaea, L.; [7]): 8.0
- herbicidal effect rating, SAGPY (Sagittaria pygmaea, L.; [8]): 9.0

Structure (SMILES): CC/C=C/CCCCCCCCCCOC(=O)COc1ccc(C)cc1-c1nsc2ccc(-n3c(=O)cc(C(F)(F)F)n(C)c3=O)cc12 [Example 526, Acetic acid, {{2-{5-[3,6-dihydro-3-methyl-2,6-dioxo-4-(trifluoromethyl)-1(2H)-pyrimidinyl]-1,2-benzisothiazol-3-yl}-p-tolyl}oxy}-, 11-tetradecenyl ester, (E)-]
- herbicidal effect rating, ECHORC [1, 9]: 2.0
- herbicidal effect rating, ECHORC [1, 10]: 2.0
- herbicidal effect rating, ECHORC [1, 11]: 4.0
- herbicidal effect rating, ECHORC [1, 12]: 6.0
- herbicidal effect rating, CYPIR (Cyperus iria; [9]): 2.0
- herbicidal effect rating, CYPIR (Cyperus iria; [10]): 4.0
- herbicidal effect rating, CYPIR (Cyperus iria; [11]): 7.0
- herbicidal effect rating, CYPIR (Cyperus iria; [12]): 9.0
- herbicidal effect rating, CYPSE [2, 9]: 0.0
- herbicidal effect rating, CYPSE [2, 10]: 0.0
- herbicidal effect rating, CYPSE [2, 11]: 0.0
- herbicidal effect rating, CYPSE [2, 12]: 0.0
- herbicidal effect rating, MOOVA [3, 9]: 8.0
- herbicidal effect rating, MOOVA [3, 10]: 9.0
- herbicidal effect rating, MOOVA [3, 11]: 9.0
- herbicidal effect rating, MOOVA [3, 12]: 9.0
- herbicidal effect rating, SAGPY (Sagittaria pygmaea, L.; [9]): 0.0
- herbicidal effect rating, SAGPY (Sagittaria pygmaea, L.; [10]): 0.0
- herbicidal effect rating, SAGPY (Sagittaria pygmaea, L.; [11]): 0.0
- herbicidal effect rating, SAGPY (Sagittaria pygmaea, L.; [12]): 0.0

Structure (SMILES): COc1ccc(OC)c(CC(=O)OCc2nsc3ccc(-n4c(=O)cc(C(F)(F)F)n(C)c4=O)cc23)c1 [Example 503, 2,4(1H,3H)-Pyrimidinedione, 3-[3-(hydroxymethyl)-1,2-benzisothiazol-5-yl]-1-methyl-6-(trifluoromethyl)-, (2,5-dimethoxyphenyl)acetate (ester)]
- ECHORC herbicidal rating [1, 13]: 2.0
- ECHORC herbicidal rating [1, 14]: 4.0
- ECHORC herbicidal rating [1, 15]: 6.0
- ECHORC herbicidal rating [1, 16]: 6.0
- CYPIR herbicidal rating (Cyperus iria; [13]): 0.0
- CYPIR herbicidal rating (Cyperus iria; [14]): 6.0
- CYPIR herbicidal rating (Cyperus iria; [15]): 9.0
- CYPIR herbicidal rating (Cyperus iria; [16]): 7.0
- CYPSE herbicidal rating [2, 15]: 5.0
- CYPSE herbicidal rating [2, 16]: 6.0
- MOOVA herbicidal rating [3, 13]: 7.0
- MOOVA herbicidal rating [3, 14]: 9.0
- MOOVA herbicidal rating [3, 15]: 9.0
- MOOVA herbicidal rating [3, 16]: 9.0
- SAGPY herbicidal rating (Sagittaria pygmaea, L.; [13]): 0.0
- SAGPY herbicidal rating (Sagittaria pygmaea, L.; [14]): 3.0
- SAGPY herbicidal rating (Sagittaria pygmaea, L.; [15]): 4.0
- SAGPY herbicidal rating (Sagittaria pygmaea, L.; [16]): 8.0

Structure (SMILES): Cn1c(C(F)(F)F)cc(=O)n(-c2ccc3snc(COC(=O)C4CC4)c3c2)c1=O [Example 496, 2,4(1H,3H)-Pyrimidinedione, 3-[3-(hydroxymethyl)-1,2-benzisothiazol-5-yl]-1-methyl-6-(trifluoromethyl)-, cyclopropanecarboxylate (ester)]
- ECHORC herbicidal rating [1, 13]: 4.0
- ECHORC herbicidal rating [1, 14]: 4.0
- ECHORC herbicidal rating [1, 15]: 6.0
- ECHORC herbicidal rating [1, 16]: 7.0
- CYPIR herbicidal rating (Cyperus iria; [13]): 0.0
- CYPIR herbicidal rating (Cyperus iria; [14]): 7.0
- CYPIR herbicidal rating (Cyperus iria; [15]): 7.0
- CYPIR herbicidal rating (Cyperus iria; [16]): 9.0
- CYPSE herbicidal rating [2, 16]: 7.0
- MOOVA herbicidal rating [3, 13]: 0.0
- MOOVA herbicidal rating [3, 14]: 6.0
- MOOVA herbicidal rating [3, 15]: 6.0
- MOOVA herbicidal rating [3, 16]: 8.0
- SAGPY herbicidal rating (Sagittaria pygmaea, L.; [13]): 0.0
- SAGPY herbicidal rating (Sagittaria pygmaea, L.; [14]): 0.0
- SAGPY herbicidal rating (Sagittaria pygmaea, L.; [15]): 3.0
- SAGPY herbicidal rating (Sagittaria pygmaea, L.; [16]): 6.0
